{"source": "patent US20100210558A1", "about": "“MINIGASTRIN AS A THERAPEUTIC AGENT” (priority 2007, published 2010)", "key": {"[1]": {"test_system": "HCMV strain AD169", "experiment": "HCMV plaque reduction assay", "type": "cell-based", "conditions": "HCMV AD169 in MRC-5 cells; peptide 10 micrograms per ml; 7-10 days", "from_the_text": "(§1) Cells were split twice a week 1:2.\nGanciclovir was used as positive control."}, "[2]": {"experiment": "Cytotoxicity in HCMV assay (CellTiter 96 cell viability)", "type": "cell-based", "conditions": "human, MRC-5 cells (embryonal lung fibroblasts), 6 days incubation", "from_the_text": "as §1"}, "[3]": {"test_system": "MRSA", "experiment": "Methicillin Resistant Staphylococcus Aureus (MRSA) assay", "type": "cell-based", "conditions": "peptide 10 micrograms per ml, visual reading of growth"}, "[4]": {"test_system": "Pseudomonas aeruginosa", "experiment": "Pseudomonas aeruginosa assay", "type": "cell-based", "conditions": "peptide 10 micrograms per ml, visual reading of growth"}, "[5]": {"test_system": "Streptococcus pneumoniae", "experiment": "Streptococcus pneumoniae assay", "type": "cell-based", "conditions": "peptide 10 micrograms per ml, visual reading of growth"}, "[6]": {"test_system": "A549 cells", "experiment": "Propidium iodide cell cycle assay", "type": "cell-based, human", "conditions": "peptide 10 micrograms per ml, 24 hours, FACS"}, "[7]": {"test_system": "Human Peripheral Blood Mononuclear Cells (PBMC)", "experiment": "T cell proliferation assay (PHA, 3H-thymidine)", "type": "cell-based", "conditions": "peptide 10 micrograms per ml, 3 days"}, "[8]": {"test_system": "Human Peripheral Blood Mononuclear Cells (PBMC)", "experiment": "B cell proliferation assay (SAC plus Interleukin-2, 3H-thymidine)", "type": "cell-based", "conditions": "peptide 10 micrograms per ml, 3 days"}, "[9]": {"test_system": "RAW 264.7 cells", "experiment": "Phagocytosis assay (Fluorescein-labeled Escherichia coli)", "type": "cell-based, mouse", "conditions": "peptide 10 micrograms per ml, Fluorescein-labeled E. coli, flow cytometry"}, "[10]": {"test_system": "spleen cells (IL-2, IL-4, IL-5, IFN-γ, TNF-α protein levels)", "experiment": "Th1/Th2 cytokine profiling assay", "type": "cell-based, Balb/c mice", "conditions": "Ovalbumin-restimulated Balb/c spleen cells; peptide 10 micrograms per ml; 72 hours"}, "[11]": {"test_system": "TNF alpha production", "experiment": "TNF alpha production assay (LPS-stimulated macrophages, ELISA)", "type": "cell-based", "conditions": "human macrophages, peptide 10 micrograms per ml, lipopolysaccharide 200 ng/ml, overnight"}, "[12]": {"test_system": "Primary Human endothelial cells (HUVEC)", "experiment": "Endothelial cell migration assay", "type": "cell-based", "conditions": "peptide 10 micrograms per ml, 22 hours"}, "[13]": {"test_system": "HUVEC", "experiment": "Endothelial tube formation assay", "type": "cell-based, human", "conditions": "peptide 10 micrograms per ml, 20 hours", "from_the_text": "Positive control was vehicle only."}, "[14]": {"experiment": "in vitro", "conditions": "human"}, "[15]": {"experiment": "Cytotoxicity in HIV-1 assay (MTS cell viability)", "conditions": "human"}, "[16]": {"test_system": "hepatitis B virus (HBV) ayw strain", "experiment": "HBV replication assay (secreted HBV DNA, TaqMan PCR)", "conditions": "HepG2-2.2.15 cells; peptide 10 micrograms per ml; six days; HBV DNA in supernatant"}}, "note": "Where no end group is shown, it is not given here."}
{"substance": "LEEEEEAYGWMDF-NH2 [Minigastrin I]", "values": [{"measurement": "% plaque reduction", "setting": "[1]", "result": 1.4, "unit": "%"}, {"measurement": "viability at 144 h", "setting": "[2]", "result": 100, "unit": "%"}, {"measurement": "% inhibition", "setting": "[3]", "result": 0.0, "unit": "%"}, {"measurement": "% inhibition", "setting": "[4]", "result": 0.0, "unit": "%"}, {"measurement": "% inhibition", "setting": "[5]", "result": 0.0, "unit": "%"}, {"measurement": "Cell cycle analysis G0/G1", "setting": "[6]", "result": 57.1}, {"measurement": "Cell cycle analysis G2/M", "setting": "[6]", "result": 10.3}, {"measurement": "Cell cycle analysis S", "setting": "[6]", "result": 32.6}, {"measurement": "% of PHA induced control", "setting": "[7]", "result": 101.1, "unit": "%"}, {"measurement": "% of SAC/IL2 induced control", "setting": "[8]", "result": 78.4, "unit": "%"}, {"measurement": "% of control phagocytosis", "setting": "[9]", "result": 145.7, "unit": "%"}, {"measurement": "IFNγ spleen cells; TH1 response (% of control)", "setting": "[10]", "result": "79.5 % of control"}, {"measurement": "IL-2 spleen cells (% of control)", "setting": "[10]", "result": "149.2 % of control"}, {"measurement": "IL-4 spleen cells; TH2 response (% of control)", "setting": "[10]", "result": "106.6 % of control"}, {"measurement": "IL-5 spleen cells; TH2 response (% of control)", "setting": "[10]", "result": "66.5 % of control"}, {"measurement": "TNF-a spleen cells; TH1 response (% of control)", "setting": "[10]", "result": "99.0 % of control"}, {"measurement": "% of LPS induction", "setting": "[11]", "result": 79.0, "unit": "%"}, {"measurement": "% inhibition of migration", "setting": "[12]", "result": "−3", "unit": "%"}, {"measurement": "% inhibition of tube formation", "setting": "[13]", "result": 36, "unit": "%"}, {"measurement": "viability at 144 h, 10 micrograms per ml", "setting": "[14]", "result": 9.5, "unit": "%"}, {"measurement": "viability at 10 micrograms per ml", "setting": "[15]", "result": 100, "unit": "%"}, {"measurement": "% inhibition of HBV replication in HEP G2 cells", "setting": "[16]", "result": 49.9, "unit": "%"}]}
